Test [1] has as its system SUM-159. The test is described as follows: Cell viability assay (CCK-8), SUM-159. It is filed as cell-based, human. The following applies: for IC50: TNBC cell line, CCK-8, 72 h, 0.156 to 40 μM; for inhibition at 5 µg/mL: SUM159. How it is done:
(§1) Four human TNBC cell lines (MDA-MB-231, MDA-MB-453, SUM-159, and BT-20), a non-TNBC breast cancer cell line (MCF-7) and a normal mammary epithelial cell line (MCF-10A) were cultured with DMEM (phenol free) supplemented with 2.5% CS-FBS and 1% L-Glu. 1.2 × 10^3 of cells were seeded into 384-well microplates and maintained for 24 h in an incubator at 37 °C in a 5% CO2, saturated humidified atmosphere. […] […] Then CCK-8 solution was added into cells and incubated for another 4 h. Absorbance was measured with a Microplate Reader at 450/600 nm. The IC50 values of the compounds on TNBC cell lines were derived using GraphPad Prism 5.0 (GraphPad Software, Inc., La Jolla, CA, USA).

The subject of test [2] is MDA-MB-453. Put plainly: Cell viability assay (CCK-8), MDA-MB-453. It is filed as cell-based. To be noted: Homo sapiens, TNBC cell line, CCK-8, 72 h, 0.156 to 40 μM. How it is done: (§2) Four human TNBC cell lines (MDA-MB-231, MDA-MB-453, SUM-159, and BT-20), a non-TNBC breast cancer cell line (MCF-7) and a normal mammary epithelial cell line (MCF-10A) were cultured with DMEM (phenol free) supplemented with 2.5% CS-FBS and 1% L-Glu. 1.2 × 10^3 of cells were seeded into 384-well microplates and maintained for 24 h in an incubator at 37 °C in a 5% CO2, saturated humidified atmosphere. Different compounds were added into cells with 9 concentrations from 0.156 to 40 μM for 72 h. […] Then CCK-8 solution was added into cells and incubated for another 4 h. Absorbance was measured with a Microplate Reader at 450/600 nm. The IC50 values of the compounds on TNBC cell lines were derived using GraphPad Prism 5.0 (GraphPad Software, Inc., La Jolla, CA, USA).

For test [3], the system named is MDA-MB-231. The test is described as follows: Cell viability assay (CCK-8), MDA-MB-231. It is filed as cell-based, human. The following applies: for IC50: TNBC cell line, CCK-8, 72 h, 0.156 to 40 μM; for inhibition at 5 µg/mL: MDA-MB-231. As for the experimental part:
as §1

Test [4] concerns BT-20. Put plainly: Cell viability assay (CCK-8), BT-20. It is filed as cell-based. To be noted: Homo sapiens, TNBC cell line, CCK-8, 72 h, 0.156 to 40 μM. How it is done: as §2
Test [5] has as its system MCF-7. Put plainly: Cell viability assay (CCK-8), MCF-7. It is filed as cell-based, human. To be noted: for IC50 / inhibition at 5 µg/mL: Homo sapiens; for IC50: MCF7, 72 h, non-TNBC breast cancer cell line, CCK-8, 72 h; for inhibition at 5 µg/mL: MCF7. How it is done:
as §1

The test system of test [6] is TNBC cell lines. The test is described as follows: Cell viability assay, different TNBC cell lines. It is filed as cell-based, human. To be noted: for IC50: Homo sapiens. How it is done:
as §2

The test system of test [7] is MCF-10A. The test is described as follows: Cell viability assay (CCK-8), MCF-10A. It is filed as cell-based, human. The following applies: for IC50: Homo sapiens, MCF-10A, normal mammary epithelial cell line, CCK-8, 72 h. As for the experimental part:
as §2

Test [8] concerns MDA-MB-436. Put plainly: Cell viability assay, MDA-MB-436. It is filed as cell-based. To be noted: Homo sapiens, TNBC cell line. As for the experimental part:
In addition to three TNBC cell lines (MDA-MB-231, MDA-MB-436, and SUM-159) and the breast cancer cell line MCF-7, we employed the normal mammary epithelial cell line MCF-10A, which was used for testing the compounds for their effects on normal breast cells (Table 6).
as §2

The subject of test [9] is signal transducer and activator of transcription 3 (STAT3). Further details: method as in ref 21, 22 = [21]; 21. Tweardy D.J. Huang X. Kasembeli M.M. Stat3 Inhibitors W.O. Patent 2009149192 A1 10 12 2009 || [22]; 22. Tweardy D.J. Kasembeli M.M. Xu M.X. Eckols T.K. Methods and Compositions for Treatment of Muscle Wasting, Muscle Weakness, and/or Cachexia Using Inhibitors of Stat3 W.O. Patent 2015010107 A1 22 1. To be noted: antitumor agent; cited from earlier work.

Test [10] has as its system heme detoxification protein (HDP). Further details: method as in ref 20 = [20]; 20. Rathore D. Jani D. Nagarkatti R. HDP (Heme Detoxification Protein) Involved in Hemozoin Formation in Plasmodium and Theileria as an Anti-protozoal Target, and High-throughput Screening for Antimal. The following applies: cited from earlier work.

“Also recorded” adds a separate entry of the source.

For orientation: IC50 means the concentration needed to halve the response being measured. Higher therefore signals a need for much substance. With `CCc1ccc(S(=O)(=O)Nc2cc(SCC(=O)O)c(O)c3ccccc23)cc1` [Compound 2-1], the IC50 was determined as 30.8 µM in test [1] (Homo sapiens, SUM159, 72 h); 3.19 µM in [2]; 4.36 µM in [3] (Homo sapiens, MDA-MB-231, 72 h); 13.3 µM in test [4]; 14 µM in test [5].

`CC(=O)Oc1c(SCC(=O)O)cc(NS(=O)(=O)c2ccc(F)cc2)c2ccccc12` [Compound 2-3]: the IC50 in [1] (Homo sapiens, SUM159, 72 h) was above 40 µM; in test [2] it was 8.59 µM; in [3] (Homo sapiens, MDA-MB-231, 72 h), 7.99 µM; in test [4], above 40 µM; in [5] it was above 40 µM.

As for `COc1ccc(S(=O)(=O)Nc2cc3c(C(=O)O)c(C)oc3c3ccccc23)cc1` [Compound 2-5-COOH], the “fold reduced inhibitory activity compared to the ester compound (2-5)” value in test [6] (both TNBC cell lines (MDA-MB-231, SUM-159)) is “approximately 10 fold”. In addition, the IC50 was above 20 µM in test [1] (Homo sapiens, SUM159, 72 h); 24.2 µM in [1]; above 20 µM in test [3] (Homo sapiens, MDA-MB-231, 72 h); around 24 µM in [3].

As a reminder, the inhibition is the percentage by which the read-out fell short of the control. With `COC(=O)c1c(C)oc2c1cc(NS(=O)(=O)c1ccc(OC)cc1)c1ccccc12` [Compound 2-5], the IC50 is 2 to 3 µM in [6]; 2.91 µM in [1] (Homo sapiens, SUM159, 72 h); 2.95 µM in test [2]; above 40 µM in [7]; 1.99 µM in [8]; 3.12 µM in test [3] (Homo sapiens, MDA-MB-231, 72 h). In addition, the IC50 in test [4] and in test [5] was above 40 µM throughout. Besides, the inhibition at 5 µg/mL was 56.8% in [1] (Homo sapiens) and 31% in [3] (Homo sapiens). Further, the “inhibitory effect on MCF-10A (in words)” value in [7] is given as “no inhibitory activity”. The “inhibitory effect on MCF-7 (in words)” value in test [5] is reported as “no inhibitory effect; also recorded: no inhibitory activity”.

In the case of `Cc1ccc(S(=O)(=O)Nc2cc(SCC(=O)O)c(O)c3ccccc23)cc1` [Compound 2-6], the IC50 in test [1] (Homo sapiens, SUM159, 72 h) is 19.2 µM; in test [2], 3.36 µM; in [3] (Homo sapiens, MDA-MB-231, 72 h) it was 4.97 µM; in [4], 25 µM; in [5], above 40 µM.

On to `CC(C)c1ccc(S(=O)(=O)Nc2cc(SCC(=O)O)c(O)c3ccccc23)cc1` [Compound 2-7], for which the IC50 in test [1] (Homo sapiens, SUM159, 72 h) was above 40 µM; in [2] it was 3.65 µM; in test [3] (Homo sapiens, MDA-MB-231, 72 h), 3.95 µM; in test [4], above 40 µM; in [5], above 40 µM.

In the case of `CCOC(=O)c1c(C)oc2c1cc(NS(=O)(=O)c1ccc(OC)cc1)c1ccccc12` [Compound 2-8], the 50% inhibitory concentration (IC50) is 2 to 3 µM in test [6]; 2.5 µM in test [1] (Homo sapiens, SUM159, 72 h); 3.09 µM in test [2]; above 40 µM in test [7]; 2.8 µM in test [8]; 2.96 µM in test [3] (Homo sapiens, MDA-MB-231, 72 h). Further, the IC50 was 10.1 µM in test [4] and above 40 µM in [5]. In addition, the values for the inhibition at 5 µg/mL in test [1] (Homo sapiens) and in test [3] (Homo sapiens) were 61.8% and 62.9%, respectively. Further, the “inhibitory effect on MCF-10A (in words)” value in test [7] was “no inhibitory activity”. Further, the “inhibitory effect on MCF-7 (in words)” value in test [5] is “no inhibitory effect; also recorded: no inhibitory activity”.

As to `COc1ccc(S(=O)(=O)Nc2cc(Cl)c(O)c3ccccc23)cc1` [Compound 2-9], the “inhibition of STAT3 (in words)” value in test [9] is given as “inhibition”. The IC50 in test [1] (Homo sapiens, SUM159, 72 h) is 18.1 µM; in test [2], 4.61 µM; in test [3] (Homo sapiens, MDA-MB-231, 72 h), 6.22 µM; in [4], above 40 µM; in test [5], above 40 µM.

Take `CCOc1ccc(S(=O)(=O)Nc2cc(Cl)c(O)c3ccccc23)cc1` [Compound 2-11]: the IC50 in [1] (Homo sapiens, SUM159, 72 h) is above 40 µM; in test [2], 5.72 µM; in test [3] (Homo sapiens, MDA-MB-231, 72 h), 6.92 µM; in [4], above 40 µM; in [5] it was above 40 µM. The “antimalarial HDP inhibitor (in words)” value in test [10] was “inhibitor”.

As for `CCCCOC(=O)c1c(C)oc2c1cc(NS(=O)(=O)c1ccc(OC)cc1)c1ccccc12` [Compound 3-3], the inhibition at 5 µg/mL was found to be 42.1% in test [1] (Homo sapiens), 51.1% in test [3] (Homo sapiens) and 29.7% in [5]. For the same molecule, the IC50 was 8.66 µM in [1] (Homo sapiens, SUM159, 72 h); above 40 µM in test [7]; 3.36 µM in test [8]; 3.25 µM in test [3] (Homo sapiens, MDA-MB-231, 72 h).

For the molecule `CCOc1ccc(S(=O)(=O)Nc2cc3c(C(=O)OC)c(C)oc3c3ccccc23)cc1` [Compound 3-9], the inhibition at 5 µg/mL in [1] (Homo sapiens) came to 60.8%; in test [3] (Homo sapiens), 63%; in [5], 24.3%. Also, the IC50 in test [1] (Homo sapiens, SUM159, 72 h) is 2.66 µM; in test [7], above 40 µM; in [8] it was 2.08 µM; in [3] (Homo sapiens, MDA-MB-231, 72 h) it was 2.68 µM.

Consider `COC(=O)c1c(C(C)(C)C)oc2c1cc(NS(=O)(=O)c1ccc(OC)cc1)c1ccccc12` [Compound 3-12], for which the values for the inhibition at 5 µg/mL in test [1] (Homo sapiens), in test [3] (Homo sapiens) and in test [5] were 90.4%, 71.4% and 76.3%, respectively. Besides, the IC50 was 11.5 µM in test [1] (Homo sapiens, SUM159, 72 h); above 40 µM in test [7]; 7.13 µM in test [8]; 11.9 µM in test [3] (Homo sapiens, MDA-MB-231, 72 h).

Regarding `CCOc1ccc(S(=O)(=O)Nc2cc3c(C(C)=O)c(C)oc3c3ccccc23)cc1` [Compound 3-17], the figures for the inhibition at 5 µg/mL in test [1] (Homo sapiens), in test [3] (Homo sapiens) and in [5] were 61%, 68.6% and 40.5%, respectively. For the same molecule, the IC50 in [1] (Homo sapiens, SUM159, 72 h) was 1.94 µM; in [7] it was 0.66 µM; in [8], around 0.01 µM; in [3] (Homo sapiens, MDA-MB-231, 72 h), 1.77 µM.

As for `CCOC(=O)c1c(C)oc2c1cc(NS(=O)(=O)c1ccc(OCC)cc1)c1ccccc12` [Compound 3-37], the figures for the inhibition at 5 µg/mL in test [1] (Homo sapiens), in [3] (Homo sapiens) and in test [5] were 66.8%, 59.7% and 42.5%, respectively. In addition, the IC50 is 4.09 µM in test [1] (Homo sapiens, SUM159, 72 h); above 40 µM in [7]; 1.41 µM in test [8]; 5.49 µM in test [3] (Homo sapiens, MDA-MB-231, 72 h).

Turning to `COc1ccc(S(=O)(=O)Nc2cc(SCC(=O)O)c(O)c3ccccc23)cc1` [Compound C10], the figures for the IC50 in test [2] and in test [4] were 2.3 µM and 10.6 µM, respectively.

With `COc1ccc(-c2oc3c(CCC(C)(C)O)c(O)cc(O)c3c(=O)c2O)cc1` [IC-163, reference compound], the IC50 is above 40 µM in [1] (Homo sapiens, SUM159, 72 h); above 40 µM in [2]; above 40 µM in [3] (Homo sapiens, MDA-MB-231, 72 h); above 40 µM in test [4]; above 40 µM in test [5].

The values above are taken from paper PMC6017705, “Discovery of N-(Naphtho[1,2-b]Furan-5-Yl) Benzenesulfonamides as Novel Selective Inhibitors of Triple-Negative Breast Cancer (TNBC)” (Molecules : A Journal of Synthetic Chemistry and Natural …, 2018).
